# Laboratory results taken from ChEMBL document CHEMBL3880441, “Irreversible covalent inhibitors of the GTPASE K-RAS G12C” (2014).
# Tested on: GTPase KRas (Homo sapiens), P01116 [G12C]
# Experiment: Binding affinity to His-tagged KRAS (1 to 169 residues) G12C mutant (unknown origin) at 10 to 100 uM after 24 hrs by mass spectrometric method
row,Compound,Activity
1,C=Cc1ccccc1S(=O)(=O)NCCNc1cccc2ccccc12,> 15%
2,C=Cc1ccccc1S(=O)(=O)NCCNc1ccc2ccccc2c1,10 to 15%
3,C=CC(=O)NC[C@@H]1C[C@@H]2O[C@H](CO)[C@@H](OCc3ccccc3)[C@@H]2O1,0.5 to 5%
4,C=Cc1ccc(S(=O)(=O)NCCNc2cccc3ccccc23)cc1,10 to 15%
5,C=CS(=O)(=O)NCCOc1cccc2ccccc12,10 to 15%
6,C=Cc1ccccc1S(=O)(=O)NCCOc1cccc2ccccc12,10 to 15%
7,C=Cc1ccc(S(=O)(=O)NCCOc2ccc3ccccc3c2)cc1,10 to 15%
8,C=CC(=O)NC[C@H]1C[C@@H]2O[C@H](CO)[C@@H](OCc3ccccc3)[C@@H]2O1,0.5 to 5%
9,C=CS(=O)(=O)NCCNc1ccc2ccccc2c1,5 to 10%
10,C=Cc1cccc(S(=O)(=O)NCCOc2ccc3ccccc3c2)c1,10 to 15%
11,C=Cc1cccc(S(=O)(=O)NCCOc2cccc3ccccc23)c1,5 to 10%
12,C=Cc1ccc(S(=O)(=O)NCCNc2ccc3ccccc3c2)cc1,5 to 10%
13,C=CS(=O)(=O)NCCNc1cccc2ccccc12,10 to 15%
14,C=CS(=O)(=O)NC[C@H]1C[C@@H]2O[C@H](CO)[C@@H](OCc3ccccc3)[C@@H]2O1,5 to 10%
15,C=Cc1ccccc1S(=O)(=O)NCCOc1ccc2ccccc2c1,5 to 10%
16,C=CS(=O)(=O)NCCOc1ccc2ccccc2c1,10 to 15%

# Results, then the compound that gave them:
row,Activity,Compound
1,10 to 15%,C=Cc1ccc(S(=O)(=O)NC[C@H]2C[C@@H]3O[C@H](CO)[C@@H](OCc4ccccc4)[C@@H]3O2)cc1
2,5 to 10%,C=Cc1cccc(S(=O)(=O)NC[C@H]2C[C@@H]3O[C@H](COCc4ccccc4)[C@@H](OCc4ccccc4)[C@@H]3O2)c1
3,10 to 15%,C=CS(=O)(=O)NC[C@H]1C[C@@H]2O[C@H](COCc3ccccc3)[C@@H](OCc3ccccc3)[C@@H]2O1
4,10 to 15%,C=Cc1ccccc1S(=O)(=O)NC[C@@H]1C[C@@H]2O[C@H](COCc3ccccc3)[C@@H](OCc3ccccc3)[C@@H]2O1
5,10 to 15%,C=Cc1ccc(S(=O)(=O)NC[C@@H]2C[C@@H]3O[C@H](COCc4ccccc4)[C@@H](OCc4ccccc4)[C@@H]3O2)cc1
6,10 to 15%,C=Cc1cccc(S(=O)(=O)NC[C@@H]2C[C@@H]3O[C@H](CO)[C@@H](OCc4ccccc4)[C@@H]3O2)c1
7,> 15%,C=Cc1cccc(S(=O)(=O)NC[C@@H]2C[C@@H]3O[C@H](COCc4ccccc4)[C@@H](OCc4ccccc4)[C@@H]3O2)c1
8,0.5 to 5%,C=CC(=O)NC[C@@H]1C[C@@H]2O[C@H](COCc3ccccc3)[C@@H](OCc3ccccc3)[C@@H]2O1
9,10 to 15%,C=CS(=O)(=O)NC[C@@H]1C[C@@H]2O[C@H](COCc3ccccc3)[C@@H](OCc3ccccc3)[C@@H]2O1
10,> 15%,C=Cc1ccc(S(=O)(=O)NC[C@H]2C[C@@H]3O[C@H](COCc4ccccc4)[C@@H](OCc4ccccc4)[C@@H]3O2)cc1
11,> 15%,C=Cc1ccccc1S(=O)(=O)NC[C@@H]1C[C@@H]2O[C@H](CO)[C@@H](OCc3ccccc3)[C@@H]2O1
12,10 to 15%,C=Cc1ccccc1S(=O)(=O)NC[C@H]1C[C@@H]2O[C@H](COCc3ccccc3)[C@@H](OCc3ccccc3)[C@@H]2O1
13,5 to 10%,C=Cc1cccc(S(=O)(=O)NC[C@H]2C[C@@H]3O[C@H](CO)[C@@H](OCc4ccccc4)[C@@H]3O2)c1
14,5 to 10%,C=Cc1ccc(S(=O)(=O)NC[C@@H]2C[C@@H]3O[C@H](CO)[C@@H](OCc4ccccc4)[C@@H]3O2)cc1
15,10 to 15%,C=Cc1ccccc1S(=O)(=O)NC[C@H]1C[C@@H]2O[C@H](CO)[C@@H](OCc3ccccc3)[C@@H]2O1
16,0.5 to 5%,C=CC(=O)NC[C@H]1C[C@@H]2O[C@H](COCc3ccccc3)[C@@H](OCc3ccccc3)[C@@H]2O1
